Measured values: patent US20130091932A1, “Process and Method for Broad Spectrum Amino Acid Challenged Urinary Organic Acids” (priority 2011, published 2013)

Assays:
[1] = up to 15 g, human studies; cited from earlier work
[2] = tested on: urinary metabolic markers; assay: 38-person study: amino acid challenge, overnight urinary organic acid profile pre vs post challenge; format: in vivo, human; conditions: in some subjects
Method: An initial pilot study was conducted using 3 subjects. A second study was conducted using 38 adult subjects who were chosen as having no diagnosed diseases and normal work habits. […] On two consecutive nights urine was collected for performing analysis of 46 compounds included in a profile of organic acids. On the second night, a single bolus of crystalline pure L-amino acids was consumed dissolved in water. All amino acids used were L-stereoisomers unless designated otherwise by the “D-”prefix. In the 3-person pilot, dosing included tyrosine, valine, leucine, isoleucine, histidine, and tryptophan as free-form or chloride salts at a total load of approximately 400 mg/kg body weight. For the 38-subject study, the dosing formula included a similar mixture containing alanine, valine, leucine, isoleucine, histidine, and tryptophan. Table 1 summarizes the amino acids included in the challenge formula, urinary metabolic markers affected and related nutrients or metabolic effects. The Amino acid challenge dose protocol was as follows. For 2 consecutive nights, participants collected overnight urine specimens. On the second night, before going to bed, they took approximately 400 mg/kg body weight of the challenge dose of amino acids. […]

N[C@@H](Cc1c[nH]cn1)C(=O)O [L-histidine]
safety of administration [1]: administered safely

C[C@H](N)C(=O)O [L-alanine]
levels of pyruvate, succinate, fumarate and malate [2]: increased levels
